Data: patent publication US9919031B2, “Use of the insulin-like-growth factor 1 splice variant MGF for the prevention of myocardial damage” (THE BOARD OF TRUSTEES OF UNIVERSITY OF ILLINOIS, priority 2002, dated 2018)

Columns and labels:
[1] = system: cardiac myocytes; test: Induction of endogenous MGF expression by PMA, real time RT-PCR; format: cell-based
Method: Primary cultures of cardiac myocytes were cultured in serum free media for 24 hours prior to the addition of PMA (200 nM). After 30 min total RNA was extracted and MGF gene expression was assayed using real time RT-PCR. […] B. A repeat of the initial experiment but in the third group PMA was added to the cultures without changing the media. MGF expression is increased to a great extent than when PMA is added with fresh media.
In order to investigate which signal appear to modulate MGF expression in cardiac myocytes, several drugs were applied to cardiomyocyte cultures. These in turn activate signal transduction molecules either directly or indirectly through receptor coupled molecules. One such drug is phorbol myristate acetate (PMA), a phorbol ester that specifically activates the Protein Kinase C family of serine/threonine signaling kinases. […] When the amount of MGF is compared to the amount of liver-type IGF in the control conditions, there is substantially less in the cardiac myocytes. […] When the same experiment was repeated but the PMA was added to myocyte cultures in which the media had not been changed for 24 hours prior to the addition of the PMA, the increase in MGF expression is even greater than when PMA is added along with fresh media (FIG. 5B).

[2] = animal models of cardiomyopathy and clinical trials; cited from earlier work
[3] = rats, recombinant L.IGF-I administered after ischemia; cited from earlier work

## CCCCCCCCCCCCCC(=O)O[C@@H]1[C@@H](C)[C@@]2(O)[C@@H](C=C(CO)C[C@]3(O)C(=O)C(C)=C[C@@H]23)[C@@H]2C(C)(C)[C@]12OC(C)=O [PMA, phorbol myristate acetate]
[1]; PMA 200 nM, 30 min
  level of IGF expression: does not change
[1]; PMA 200 nM, 30 min, serum free media 24 hours, added with fresh media
  expression of the endogenous MGF gene: significant increase
[1]; PMA added to cultures whose media had not been changed for 24 hours, versus PMA with fresh media
  increase in MGF expression, media not changed: even greater

## growth hormone: growth hormone; induces expression of systemic insulin-like growth factors via the liver
[2]
  cardiac function: Significant improvement

## recombinant L.IGF-I: recombinant systemic, liver-type IGF-I
[3]
  cell death following transient myocardial ischemia: reduced cell death
